The source of these data is paper PMC10975178, “Evaluation on the Potential for Hepatotoxic Components from Herba Epimedii to Induce Apoptosis in HepG2 Cells and the Analysis of the Influence of Metabolism in Liver Microsomes” (Molecules, 2024).

Data set [1] has as its system HepG2 cells. Nature of the data set: HepG2 cell apoptosis after incubation of the compound with human liver microsomes (metabolism mixture). Type of data set: cell-based. Particulars: mixture on HepG2 cells 24 h. The protocol:
HepG2 cells were cultured in Roswell Park Memorial Institute (RPMI) 1640 medium (GIBCO, Grand Island, NY, USA) supplemented with 10% heat-inactivated fetal bovine serum (PAN Biotech GmbH, Aidenbach, Germany), 100 U/mL penicillin, and 100 μg/mL streptomycin. The cells were maintained in a humidified atmosphere with 5% CO2 at 37 °C. Upon reaching 90% confluence, the cells were prepared as single-cell suspensions at a density of 1 × 10^4 cells/mL by treatment with 0.25% trypsin with 0.02% EDTA and then dispensed into 12-well plates (Corning, NY, USA) with a total volume of 1.5 mL per well. After culturing for 24 h, the medium was discarded, and the cells were incubated with fresh medium or medium containing different hepatotoxic compounds at various concentrations for an additional 24 h. […] After treatment, the cells were collected for apoptosis analysis. To investigate the effects of the hepatotoxic compounds on HepG2 cell apoptosis, flow cytometry was performed with a FACSCalibur flow cytometer (BD Biosciences) using an Annexin V-FITC apoptosis detection kit. The cells were prepared according to the manufacturer’s instructions. Briefly, the collected cell pellets were washed three times by centrifugation at 2000 rpm and 4 °C for 5 min with PBS and resuspended in binding buffer. Then, the cells were incubated with Annexin V-FITC for 15 min, propidium iodide (PI) was added, and the cells were incubated for another 5 min. The whole labeling process was performed in the dark. After fluorescent labeling, the cell suspension was immediately analyzed by flow cytometry. Cells in the early phases of apoptosis can bind Annexin V-FITC but exclude PI, while cells in late apoptosis or those that are necrotic can be stained with Annexin V-FITC and PI simultaneously. The incubation mixtures were prepared following the instructions from the manufacturer of the metabolic stability kits and contained sagittatoside A, icariside I, baohuoside I, and icaritin, of which the final concentrations were 49, 50, 32 and 3.8 μg/mL. […]
On the technique in general: Microsomes from liver hold many membrane-bound enzymes, among them those of drug oxidation.

Data set [2] deals with HepG2 cells. Description: HepG2 cell apoptosis by flow cytometry (Annexin V-FITC/PI). The class given is cell-based. Particulars: 24 h. As to the method: HepG2 cells were cultured in Roswell Park Memorial Institute (RPMI) 1640 medium (GIBCO, Grand Island, NY, USA) supplemented with 10% heat-inactivated fetal bovine serum (PAN Biotech GmbH, Aidenbach, Germany), 100 U/mL penicillin, and 100 μg/mL streptomycin. The cells were maintained in a humidified atmosphere with 5% CO2 at 37 °C. Upon reaching 90% confluence, the cells were prepared as single-cell suspensions at a density of 1 × 10^4 cells/mL by treatment with 0.25% trypsin with 0.02% EDTA and then dispensed into 12-well plates (Corning, NY, USA) with a total volume of 1.5 mL per well. After culturing for 24 h, the medium was discarded, and the cells were incubated with fresh medium or medium containing different hepatotoxic compounds at various concentrations for an additional 24 h. […] After treatment, the cells were collected for apoptosis analysis. To investigate the effects of the hepatotoxic compounds on HepG2 cell apoptosis, flow cytometry was performed with a FACSCalibur flow cytometer (BD Biosciences) using an Annexin V-FITC apoptosis detection kit. The cells were prepared according to the manufacturer’s instructions. Briefly, the collected cell pellets were washed three times by centrifugation at 2000 rpm and 4 °C for 5 min with PBS and resuspended in binding buffer. Then, the cells were incubated with Annexin V-FITC for 15 min, propidium iodide (PI) was added, and the cells were incubated for another 5 min. The whole labeling process was performed in the dark. After fluorescent labeling, the cell suspension was immediately analyzed by flow cytometry. Cells in the early phases of apoptosis can bind Annexin V-FITC but exclude PI, while cells in late apoptosis or those that are necrotic can be stained with Annexin V-FITC and PI simultaneously.
For orientation: In flow cytometry, cells or beads pass a laser one at a time.

The next data set deals with Bax/Bcl-2. Nature of the data set: Western blot, Bax/Bcl-2 ratio in HepG2 cells. Type of data set: cell-based. Conditions: 24 h, high concentration (sagittatoside A 49, icariside I 50, baohuoside I 32, icaritin 3.8 μg/mL), vs untreated cells. The protocol:
(§1) To explore the mechanism of apoptosis induced by the hepatotoxic compounds, the expression of key proteins related to apoptosis, including Bax, Bcl-2, Caspase-3 and Caspase-9, was assessed by western blotting. HepG2 cells were treated with different concentrations of the hepatotoxic compounds for 24 h and collected with a cell scraper. The concentrations of sagittatoside A were set to 12.2, 24.5, and 49 μg/mL; those of icariside I were 12.5, 25, and 50 μg/mL; baohuoside I was used at 8, 16, and 32 μg/mL; and icaritin was tested at 0.9, 1.9 and 3.8 μg/mL. The cells were washed twice with PBS and lysed in total protein cell lysis buffer. Protein concentrations were determined using a BCA protein assay kit (Thermo Fisher Scientific, Waltham, MA, USA). Then, to destroy the 3-dimensional protein structure, the proteins in the loading buffer were heated at 95 °C for 5 min. An equal amount of protein from each sample was separated by SDS-PAGE on 10% SDS–polyacrylamide gels. After the protein was transferred to a polyvinylidene difluoride membrane (Millipore, Bedford, MA, USA), the membrane was incubated in blocking buffer (5% nonfat dairy milk in TBST) for 2 h and probed with various antibodies (1:1000) overnight at 4 °C. […] The changes in the protein expression levels are expressed as percentages relative to the levels measured in the corresponding control groups.
(In general: A western blot detects proteins with antibodies after separation by electrophoresis.)

The nature of data set [3]: in vitro. Type of data set: in vitro ADME, rhesus monkeys. Particulars: rhesus monkey, microsomes; for final amount remaining: 60 min, 5 μM.
Data set [4] can be described thus: in vitro. Conditions: beagle, dog, microsomes; for final amount remaining: 60 min, 5 μM. The class given is in vitro ADME, beagle dogs.
The format of data set [5] is in vitro ADME, SD rats. Particulars: SD, rat, microsomes, 1 h, 5 μM.
In the next data set the test system is caspase-9. Description: Western blot, caspase-9 expression in HepG2 cells. Type of data set: cell-based. Particulars: 24 h, high concentration (sagittatoside A 49, icariside I 50, baohuoside I 32, icaritin 3.8 μg/mL), vs untreated cells. The protocol:
To explore the mechanism of apoptosis induced by the hepatotoxic compounds, the expression of key proteins related to apoptosis, including Bax, Bcl-2, Caspase-3 and Caspase-9, was assessed by western blotting. HepG2 cells were treated with different concentrations of the hepatotoxic compounds for 24 h and collected with a cell scraper. The concentrations of sagittatoside A were set to 12.2, 24.5, and 49 μg/mL; those of icariside I were 12.5, 25, and 50 μg/mL; baohuoside I was used at 8, 16, and 32 μg/mL; and icaritin was tested at 0.9, 1.9 and 3.8 μg/mL. The cells were washed twice with PBS and lysed in total protein cell lysis buffer. Protein concentrations were determined using a BCA protein assay kit (Thermo Fisher Scientific, Waltham, MA, USA). Then, to destroy the 3-dimensional protein structure, the proteins in the loading buffer were heated at 95 °C for 5 min. An equal amount of protein from each sample was separated by SDS-PAGE on 10% SDS–polyacrylamide gels. After the protein was transferred to a polyvinylidene difluoride membrane (Millipore, Bedford, MA, USA), the membrane was incubated in blocking buffer (5% nonfat dairy milk in TBST) for 2 h and probed with various antibodies (1:1000) overnight at 4 °C. The membrane was then probed with a secondary antibody (1:5000) for 2 h at room temperature, and detection was performed with an enhanced chemiluminescence kit (Millipore, Bedford, MA, USA). β-Actin was used as the control to confirm equal loading. Densitometry index analysis of the bands was conducted using a gel imagery system. The changes in the protein expression levels are expressed as percentages relative to the levels measured in the corresponding control groups.

The next data set has as its system caspase-3. Nature of the data set: Western blot, caspase-3 expression in HepG2 cells. The class given is cell-based. Particulars: 24 h, high concentration (sagittatoside A 49, icariside I 50, baohuoside I 32, icaritin 3.8 μg/mL), vs untreated cells. The protocol: as §1

For `COc1ccc(-c2oc3c(CC=C(C)C)c(O)cc(O)c3c(=O)c2O[C@@H]2O[C@@H](C)[C@H](O)[C@@H](O)[C@H]2O)cc1` [baohuoside I], the “apoptosis rate, metabolism mixture” value in the data set with HepG2 cells [1] (32 μg/mL incubated 30 min with human liver microsomes (phase I and II), insignificant) turned out to be 3.40 ± 0.19%. Also, the apoptosis rate in the data set with HepG2 cells [2] (32 μg/mL, mean ± SD n = 3, p < 0.05 vs control) amounted to 3.93 ± 0.20%. Also, the Bax/Bcl-2 ratio entry in the data set on Bax/Bcl-2 is given as “increased”. In “in vitro [3]”, the final amount remaining is 0.86 ± 0.17%. Moreover, in the data set “in vitro [4]”, the CLint scaled at 5 μM came out at 28.4 mL/min/kg and the final amount remaining was 5.69 ± 0.33%. The amount remaining in data set [5] is recorded as 8.52 ± 0.15%. The caspase-9 expression entry with caspase-9 is reported as “significant increase”. Also, in the data set with caspase-3, the caspase-3 expression result is “significant increase”.
With `COc1ccc(-c2oc3c(CC=C(C)C)c(O[C@@H]4O[C@H](CO)[C@@H](O)[C@H](O)[C@H]4O)cc(O)c3c(=O)c2O)cc1` [icariside I], in the data set on HepG2 cells [1] (50 μg/mL incubated 30 min with human liver microsomes (phase I and II), p < 0.05), the “apoptosis rate, metabolism mixture” value is on record as 3.86 ± 0.22%. In the data set on HepG2 cells [2] (50 μg/mL, mean ± SD n = 3, no change vs control), this compound came in with an apoptosis rate of 2.39 ± 0.34%. The values for the intrinsic metabolic clearance (CLint scaled) at 5 μM in the data set “in vitro [3]” and in the data set “in vitro [4]” were 36.4 mL/min/kg and 24.7 mL/min/kg, respectively. For the same compound, the final amount remaining in the data set “in vitro [3]” came out at 17.23 ± 5.20%; in “in vitro [4]” it was 30.79 ± 3.26%. Also, the amount remaining in data set [5] stood at 2.38 ± 0.32%. In the data set on caspase-9, the caspase-9 expression entry was “significant increase”.
For the compound `COc1ccc(-c2oc3c(CC=C(C)C)c(O)cc(O)c3c(=O)c2O)cc1` [icaritin], the “apoptosis rate, metabolism mixture” value with HepG2 cells [1] (3.8 μg/mL incubated 30 min with human liver microsomes (phase I and II), p < 0.01) is listed as 5.61 ± 0.83%. The compound further showed an apoptosis rate in the data set on HepG2 cells [2] (3.8 μg/mL, mean ± SD n = 3, p < 0.01 vs control) of 25.93 ± 0.66%. Further, the Bax/Bcl-2 ratio result in the data set with Bax/Bcl-2 was “increased”. The figures for the final amount remaining in the data set “in vitro [3]” and in “in vitro [4]” were 14.86 ± 0.76% and 4.42 ± 0.67%, respectively. Moreover, in data set [5], the amount remaining came to 48.95 ± 4.13%. Also, the caspase-9 expression result with caspase-9 is “significant increase”. For the same compound, in the data set on caspase-3, the caspase-3 expression result is “significant increase”.

A word on the CLint scaled: it is the rate of metabolic loss divided by the concentration. A high value points to faster metabolism.
